Key:
[1] = target: T1, ADP P2Y12 (Homo sapiens, UniProt Q9H244); assay: FLIPR calcium assay transducing Gi-coupled signaling to the Gq pathway (inhibition of calcium mobilization); format: cell-based; conditions: HEK 293 cells co-transfected with P2Y12 and Gqi5, ADP at EC60-70 dose
T1 construct: expressed in transfected cells
From the text: A FLIPR Calcium Assay Transducing Gi-Coupled Signaling to the Gq Pathway
The ADP P2Y12 subtype is a Gi coupled GPCR, which mediates inhibition of adenylate cyclase leading to decreased cAMP while Gq proteins primarily activate phospholipase C, which stimulates inositol-1,4,5-triphosphate (IP3) formation and a subsequent increase in intracellular Ca^2+ concentration, which can be easily measured by FLIPR. Prior to the development of a method to convert a Gi coupled GPCR signaling to a Gq coupled GPCR signaling, a significant barrier existed for the functional testing and screening of Gi coupled GPCRs. One popular method, GTPγS migration, is slow, produces a small signal and generates radioactive waste. The discovery that a small switch in the amino acid sequence in the Gi protein could convert it to a protein mediating a Gq coupled response has led to the development of robust, high throughput assays for this valuable receptor subtype.
The FLIPR-based HTS assay transducing the Gi signaling to the Gq pathway is described below.
pcDNA3hygroP2Y12 containing a hygromycin resistance gene and pLEC1-Gqi5-HA containing a neomycin resistance gene (licensed from Molecular Devices, Sunnyvale, Calif.) were co-transfected into Human embryonic kidney (HEK) 293 cells with SuperFect (Qiagen, Valencia, Calif.). Cell clones were selected in the presence of 600 μg/ml hygromycin B (Life Technologies, Carlsbad, Calif.) and 1 mg/ml of G418 (Mediatech, Herndon, Va.). Drug resistant colonies were picked and screened by FLIPR and the gene expression was further confirmed by RT-PCR. Positive clones were maintained in growth medium (DMEM supplemented with 10% FBS, 1×p/s) containing 400 μg/ml of G418 and 200 μg/ml of hygromycin.
The day before the assay, cells are seeded in clear, flat-bottom black-wall, tissue culture treated polystyrene 96- or 384-well plates and incubated at 37° C., 5% CO2. 50 μl of complete dye loading solution (FLIPR Calcium Assay Kit, Molecular Devices) was added to each well containing 100 μl of culture media. The cells were incubated for at least 30 min at 37° C., in 5% CO2 before initiating the assay on the FLIPR. The agonist effect of ADP was tested and EC50 was determined prior to compound testing. The EC60-70 dose was used.
The antagonist compounds were prepared at 4× and the agonists were diluted at 5× the concentration desired in the test wells, and then aliquoted into the sample plates. The sample plates and the cell plate were placed in the FLIPR assay chamber. A first addition (50 μl) was made at the start of reading and a second addition (50 μl) was made after 5 min of reading. Raw fluorescence data was exported for each well and tabulated versus time within an ASCII file. Data was then imported into Excel and the peak response over the basal level was determined. The percent inhibition for each compound was calculated by the change in fluorescent density as a % inhibition of the control ADP response to obtain an IC50, as shown in Table 1 (wherein N/A means Not Applicable).

[2] = target: T2, P2Y12 receptor (Homo sapiens, UniProt Q9H244); assay: Whole cell receptor binding assay for 2-MeS[3H]-ADP; conditions: whole HEK 293 cells transfected with P2Y12; 2-MeS[3H]-ADP 3 nM; 30 min at 37° C.; read-out: Inhibition of Receptor Binding IC50
T2 construct: expressed in transfected cells
T2 sequence (Q9H244 whole entry): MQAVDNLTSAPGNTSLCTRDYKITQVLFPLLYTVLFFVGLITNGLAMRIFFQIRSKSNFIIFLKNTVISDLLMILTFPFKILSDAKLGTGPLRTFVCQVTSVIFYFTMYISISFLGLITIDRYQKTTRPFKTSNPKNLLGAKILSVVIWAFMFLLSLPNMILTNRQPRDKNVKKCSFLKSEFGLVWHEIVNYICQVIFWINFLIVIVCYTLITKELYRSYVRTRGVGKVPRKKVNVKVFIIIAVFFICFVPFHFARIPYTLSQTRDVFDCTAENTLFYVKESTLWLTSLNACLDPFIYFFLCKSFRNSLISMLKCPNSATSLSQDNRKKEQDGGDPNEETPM
Method: A whole cell-binding assay for 2-MeS [^3H]-ADP (Custom synthesized by Amersham BioScience, Piscataway, N.J.) to the P2Y12 receptor was performed.
A P2Y12 cDNA containing hygromycin resistant gene was transfected in HEK 293 cells. A stable cell line was obtained by a cloning selection method. The cells were cultured in DMEM supplemented with 10% FBS and 1× of p/s.
On the day of the assay, the cells were harvested and resuspended in 0.25% BSA-DMEM and adjusted to a cell concentration of 1.6×10^6/ml. […] The reaction was then incubated for 30 min at 37° C. and stopped by adding cold DMEM. […] The plates were dyed in a 37° C. oven for 1-2 hours and 50 μl of MicroScint-20 (PerkinElmer) was added to each well. The radioactivity was measured using a TOPCOUNT beta counter (Packard).

[3] = test system: washed platelets; assay: In vitro platelet aggregation; format: cell-based; conditions: Homo sapiens, washed platelets from healthy volunteers, agonist (ADP) at 60-70% aggregation, % inhibition of control ADP response
Method: Platelet aggregation studies were performed according to a published method (Bednar, B., Condra, C., Gould, R. J., and Connolly, T. M., Throm. Res., 77:453-463 (1995). Platelet-rich plasma (PRP) concentrates prepared from healthy volunteers who were aspirin free for at least 7 days by venipuncture using ACD-A as anticoagulant was purchased from Biological Specialties, Inc. (Colmar, Pa.). PRP was centrifuged at 730 g for 15 min. The platelet pellet was washed twice in CGS buffer (13 mM sodium citrate, 30 mM glucose, 120 mM NaCl, pH 6.5) containing 1 μ/ml apyrase (grade V, Sigma-Aldrich, St. Louis, Mo.), 1 mM EGTA, and resuspended in Tyrode's buffer (140 mM NaCl, 2.7 mM KCl, 12 mM NaHCO3, 0.76 mM Na2HPO4, 5.5 mM dextrose, 5.0 mM Hepes, 0.2% BSA, pH 7.4). The platelets were diluted to 3×10^8 platelets/ml and kept >45 min at 37° C. before use. 105 μl of washed platelets, 2 mM CaCl2 and […] of fibrinogen were added to a 96-well microliter plate.
Platelet aggregation was initiated by the addition of serial concentrations of ADP (BioData Corp. Horsham, Pa.). Buffer was added to one set of control wells. The assay plate was stirred constantly and intermittently placed in a microplate reader (Softmax, Molecular Devices, Menlo Park, Calif.) to read optical density (650 nm) at 0 and 5 minutes after the addition of the compound solutions. Aggregation was calculated as the decrease in optical density between the time 0- and 5-min measurements and expressed as % of aggregation. For the inhibition assay, platelet aggregation was conducted as described above except for compound additions. Test compounds were prepared in 100% DMSO and stored.
On the day of the assay, test compounds were diluted in the buffer containing 3% of DMSO as a 10× working solution. 15 μl of compound solutions were added to 105 μl of platelets 5 min prior to the addition of CaCl2 and fibrinogen.

T1 sequence (Q9H244 whole entry): as above

**Q.** With CCCSc1nc(N[C@@H]2C[C@H]2c2ccccc2)c2nnn([C@@H]3C=C[C@H](O)[C@@H](O)[C@H]3O)c2n1 (mixture of isomers) [Cpd 5, (1S,2R,3S,6R)-6-{7-[(1RS,2SR)-2-phenyl-cyclopropylamino]-5-propylsulfanyl-[1,2,3]triazolo[4,5-d]pyrimidin-3-yl}-cyclohex-4-ene-1,2,3-triol] as the compound, how does the IC50 [1] read?
**A.** 745 nM

**Q.** And the IC50 [2]?
**A.** 2100 nM

**Q.** What about the IC50 [3] of the same compound?
**A.** 5050 nM

**Q.** How did the IC50 [1] turn out when CCCSc1nc(N[C@@H]2C[C@H]2c2ccccc2)c2nnn([C@@H]3C=C[C@H](OCC(=O)O)[C@@H](O)[C@H]3O)c2n1 (mixture of isomers) [Cpd 11, [(1S,4R,5S,6S)-5,6-dihydroxy-4-{7-[(1RS,2SR)-2-phenyl-cyclopropylamino]-5-propylsulfanyl-[1,2,3]triazolo[4,5-d]pyrimidin-3-yl}-cyclohex-2-enyloxy]-acetic acid] was run?
**A.** 2200 nM

**Q.** What about the IC50 [2] of the same compound?
**A.** 1490 nM

**Q.** And the IC50 [3]?
**A.** 2910 nM

**Q.** How did the IC50 [1] turn out when CCCSc1nc(N[C@@H]2C[C@H]2c2ccccc2)c2nnn([C@@H]3CC[C@H](O)[C@@H](O)[C@H]3O)c2n1 (mixture of isomers) [Cpd 14, (1S,2R,3S,4R)-4-{7-[(1RS,2SR)-2-phenyl-cyclopropylamino]-5-propylsulfanyl-[1,2,3]triazolo[4,5-d]pyrimidin-3-yl}-cyclohexane-1,2,3-triol] was run?
**A.** 456 nM

**Q.** What about the IC50 [2] of the same compound?
**A.** 1350 nM

**Q.** And the IC50 [3]?
**A.** 3100 nM

**Q.** With CCCSc1nc(N[C@@H]2C[C@H]2c2ccccc2)c2nnn([C@H]3[C@H](O)[C@H](O)[C@@H](O)[C@H](O)[C@@H]3O)c2n1 (racemic) [Cpd 9, (1R,2R,4S,5S)-6-{7-[(1RS,2SR)-phenyl-cyclopropylamino]-5-propylsulfanyl-[1,2,3]triazolo[4,5-d]pyrimidin-3-yl}-cyclohexane-1,2,3,4,5-pentaol] as the compound, how does the IC50 [1] read?
**A.** 2960 nM

**Q.** What about the IC50 [2] of the same compound?
**A.** 5040 nM

**Q.** And the IC50 [3]?
**A.** 15000 nM

**Q.** How did the IC50 [1] turn out when CCCCNc1nc(SCCC)nc2c1nnn2[C@@H]1C=C[C@H](O)[C@@H](O)[C@H]1O [Cpd 1, (1S,2R,3S,6R)-6-(7-butylamino-5-propylsulfanyl-[1,2,3]triazolo[4,5-d]pyrimidin-3-yl)-cyclohex-4-ene-1,2,3-triol] was run?
**A.** 2120 nM

**Q.** What about the IC50 [2] of the same compound?
**A.** 9030 nM

**Q.** What about the IC50 [3] of the same compound?
**A.** 15200 nM

**Q.** With CCCSc1nc(NCC2CCCN2CC)c2nnn([C@@H]3CC[C@H](O)[C@@H](O)[C@H]3O)c2n1 (stereo partly drawn) [Cpd 21, (1S,2R,3S,4R)-4-{7-[(1-ethyl-pyrrolidin-2-ylmethyl)-amino]-5-propylsulfanyl-[1,2,3]triazolo[4,5-d]pyrimidin-3-yl}-cyclohexane-1,2,3-triol] as the compound, how does the IC50 [1] read?
**A.** > 30000 nM

**Q.** What about the IC50 [3] of the same compound?
**A.** > 30000 nM

— patent publication US8148385B2, “Substituted [1,2,3] triazolo[4,5-d]pyrimidine derivatives as ADP P2Y12 receptor antagonists” (Janssen Pharmaceutica N.V., priority 2006, dated 2012)
